Measured values taken from article PMC6522927, “Fibrate-based N-acylsulphonamides targeting carbonic anhydrases: synthesis, biochemical evaluation, and docking studies” (Journal of Enzyme Inhibition and Medicinal Chemistry, 2019).
“Also recorded” adds a separate entry of the source.

Assays:
hCA II = target: T1, hCA II (Homo sapiens, UniProt P00918); experiment: stopped-flow CO2 hydrase assay, hCA II; assay type: biochemical; conditions: for Ki: recombinant hCA II, CO2 hydration, 15 min preincubation; for inhibition of hCA II (in words): result stated in words
T1 construct: made in house
Description: (§1) An Applied Photophysics stopped-flow instrument has been used for assaying the CA catalysed CO2 hydration activity. Phenol red (0.2 mM) has been used as indicator, working at the absorbance maximum of 557 nm, with 20 mM Hepes (pH 7.5, for α-CAs) as buffer, and 20 mM NaClO4 (for maintaining constant the ionic strength), following the initial rates of the CA-catalysed CO2 hydration reaction for a period of 10–100 s. The CO2 concentrations ranged from 1.7 to 17 mM for the determination of the kinetic parameters and inhibition constants. In particular, CO2 was bubbled in distilled deionised water for 30 min till saturation. A CO2 kit (Sigma, Milan, Italy) was used to measure the concentration in serially diluted solutions from the saturated one at the same temperature. For each inhibitor at least six traces of the initial 5–10% of the reaction have been used for determining the initial velocity. The uncatalysed rates were determined in the same manner and subtracted from the total observed rates. Stock solutions of inhibitor ([…]) were prepared in distilled–deionised water and dilutions up to 0.1 nM were done thereafter with the assay buffer. Inhibitor and enzyme solutions were preincubated together for 15 min at room temperature prior to assay, in order to allow for the formation of the E–I complex or for the eventual active site mediated hydrolysis of the inhibitor. The inhibition constants were obtained by non-linear least-squares methods using PRISM 3 and the Cheng–Prusoff equation and represent the average from at least three different determinations. All recombinant CA isoforms were obtained in-house as previously reported[24]^,[25].

hCA IX = target: T2, hCA IX (Homo sapiens, UniProt Q16790); experiment: stopped-flow CO2 hydrase assay, hCA IX; assay type: biochemical; conditions: for inhibition of hCA IX (in words): result stated in words
T2 construct: made in house
Description: as §1

hCA I = target: T3, hCA I (Homo sapiens, UniProt P00915); experiment: stopped-flow CO2 hydrase assay, hCA I; assay type: biochemical; conditions: for Ki: recombinant hCA I, CO2 hydration, 15 min preincubation; for inhibition of hCA I (in words): result stated in words
T3 construct: made in house
Description: as §1

hCA XII = target: T4, hCA XII (Homo sapiens, UniProt O43570); experiment: stopped-flow CO2 hydrase assay, hCA XII; assay type: biochemical; conditions: result stated in words
T4 construct: made in house
Description: as §1

T4 sequence (O43570 25-354): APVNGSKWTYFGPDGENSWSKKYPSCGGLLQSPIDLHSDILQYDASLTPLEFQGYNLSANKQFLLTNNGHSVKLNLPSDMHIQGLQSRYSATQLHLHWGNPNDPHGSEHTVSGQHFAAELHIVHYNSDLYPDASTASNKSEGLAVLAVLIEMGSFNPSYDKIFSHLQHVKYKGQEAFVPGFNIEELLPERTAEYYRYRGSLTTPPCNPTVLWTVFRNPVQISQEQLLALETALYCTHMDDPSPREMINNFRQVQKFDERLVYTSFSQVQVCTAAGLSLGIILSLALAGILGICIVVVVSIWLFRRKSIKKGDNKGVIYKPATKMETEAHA
T3 sequence (P00915 whole entry): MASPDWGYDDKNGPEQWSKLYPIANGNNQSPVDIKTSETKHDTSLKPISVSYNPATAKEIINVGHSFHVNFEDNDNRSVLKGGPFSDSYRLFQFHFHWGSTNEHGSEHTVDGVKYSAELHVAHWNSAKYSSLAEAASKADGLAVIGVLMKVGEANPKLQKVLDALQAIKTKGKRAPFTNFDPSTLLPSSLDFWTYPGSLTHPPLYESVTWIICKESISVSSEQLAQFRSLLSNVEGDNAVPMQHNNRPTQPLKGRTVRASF

Row | Structure (SMILES) | Ki (hCA II) [nM] | inhibition of hCA II (in words) (hCA II) | Ki (hCA IX; recombinant hCA IX, CO2 hydration, 15 min preincubation) [nM] | inhibition of hCA IX (in words) (hCA IX) | Ki (hCA I) [nM] | inhibition of hCA I (in words) (hCA I) | melting point | inhibition of hCA XII (in words) (hCA XII)
1 | CC(C)(Oc1ccc(C(=O)c2ccc(Cl)cc2)cc1)C(=O)NS(=O)(=O)c1ccccc1 [Compound 18] | 1300 | moderate inhibition | 440 | moderate inhibition; also recorded: submicromolar | < 10000 | moderate inhibition; also recorded: submicromolar |  | 
2 | CC(=O)Nc1ccc(S(=O)(=O)NC(=O)C(C)(C)Oc2ccc(C(=O)c3ccc(Cl)cc3)cc2)cc1 [Compound 23, N-{[4-(acetylamino)phenyl]sulfonyl}-2-[4–(4-chlorobenzoyl)phenoxy]-2-methylpropanamide] |  |  |  |  |  |  | 226 to 228 °C | 
3 | Cc1ccc(C)c(OCCCC(C)(C)C(=O)NS(=O)(=O)c2ccccc2)c1 [Compound 16] |  | completely inactive |  | completely inactive |  | completely inactive |  | completely inactive
4 | O=C(COc1ccc(C(=O)c2ccccc2)cc1)NS(=O)(=O)c1ccccc1 [Compound 26, 2-(4-Benzoylphenoxy)-N-(phenylsulphonyl)acetamide] |  | did not induce a sensible inhibition |  | did not induce a sensible inhibition |  | did not induce a sensible inhibition | 61 to 62 °C | did not induce a sensible inhibition
5 | CC(C)(Oc1ccc(CCNC(=O)c2ccc(Cl)cc2)cc1)C(=O)NS(=O)(=O)c1ccccc1 [Compound 17] |  | moderate inhibition |  | moderate inhibition |  | moderate inhibition |  | 
6 | CC(C)(Oc1ccc(Cl)cc1)C(=O)NS(=O)(=O)c1ccccc1 [Compound 15] |  | completely inactive |  | completely inactive |  | completely inactive |  | completely inactive
7 | CCCC(Oc1ccc(C(=O)c2ccccc2)cc1)C(=O)NS(=O)(=O)c1ccccc1 (stereo not shown) [Compound 27, 2-(4-Benzoylphenoxy)-N-(phenylsulphonyl)pentanamide] |  | did not induce a sensible inhibition |  | did not induce a sensible inhibition |  | did not induce a sensible inhibition |  | did not induce a sensible inhibition
8 | CC(C)(Oc1ccc(C(=O)c2ccc(Cl)cc2)cc1)C(=O)NS(=O)(=O)c1ccc([N+](=O)[O-])cc1 [Compound 22, 2-[4–(4-Chlorobenzoyl)phenoxy]-2-methyl-N-[(4-nitrophenyl)sulfonyl]propanamide] | 16 |  |  |  |  |  | 196 to 198 °C | 
9 | CC(C)(Oc1ccc(C(=O)c2ccc(Cl)cc2)cc1)C(=O)NS(=O)(=O)c1ccc(Cl)cc1 [Compound 21, 2-[4–(4-Chlorobenzoyl)phenoxy]-N-[(4-chlorophenyl)sulfonyl]-2-methylpropanamide] |  |  |  |  | < 10000 |  | 204 to 205 °C (dec.) | 
10 | COc1ccc(S(=O)(=O)NC(=O)C(C)(C)Oc2ccc(C(=O)c3ccc(Cl)cc3)cc2)cc1 [Compound 20, 2-[4-(4-Chlorobenzoyl)phenoxy]-N-[(4-methoxyphenyl)sulfonyl]-2-methylpropanamide] |  |  |  |  |  |  | 188 to 189 °C | 
11 | CC(C)(Oc1ccc(C(=O)c2ccc(Cl)cc2)cc1)C(=O)NS(=O)(=O)c1ccc(NC(=O)c2ccccc2)cc1 [Compound 24, N-{4-[({2-[4–(4-chlorobenzoyl)phenoxy]-2-methylpropanoyl}amino)sulfonyl]phenyl} benzamide] | 77 | marked effect |  |  | < 10000 | marked effect | 232 to 234 °C | 
